Where a SMILES comes first, the peptide text is derived from it. Bridges are numbered along the chain shown (N, C = ends). [ ]: non-standard residue; d: D form. Nle = CCCC[C@H](N)C(=O)O

The target of this assay is Rat whole blood (Rattus norvegicus, UniProt P15384). In kind it is cell-based. As to conditions: IL-17A release, thapsigargin, 24 Hr, at least 2 replicates.
Sequence of Rat whole blood (P15384 whole entry): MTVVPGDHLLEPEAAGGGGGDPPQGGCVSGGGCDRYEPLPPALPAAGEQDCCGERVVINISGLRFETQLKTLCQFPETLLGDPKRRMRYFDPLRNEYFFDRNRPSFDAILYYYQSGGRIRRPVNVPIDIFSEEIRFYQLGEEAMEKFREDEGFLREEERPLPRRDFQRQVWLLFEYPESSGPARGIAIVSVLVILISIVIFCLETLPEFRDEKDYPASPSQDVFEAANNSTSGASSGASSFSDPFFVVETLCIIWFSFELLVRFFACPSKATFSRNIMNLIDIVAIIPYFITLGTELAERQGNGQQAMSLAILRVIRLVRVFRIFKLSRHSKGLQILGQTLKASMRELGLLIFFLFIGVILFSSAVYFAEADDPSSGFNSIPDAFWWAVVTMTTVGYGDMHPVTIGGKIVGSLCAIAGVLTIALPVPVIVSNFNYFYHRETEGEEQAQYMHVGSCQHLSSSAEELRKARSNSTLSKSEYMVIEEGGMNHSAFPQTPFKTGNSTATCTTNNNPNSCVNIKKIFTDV

Regarding `CC[C@H](C)[C@@H]1NC(=O)[C@H](C)NC(=O)[C@H](CCCCN)NC(=O)[C@H](CC(C)C)NC(=O)[C@@H]2CSSC[C@@H](C(=O)N[C@@H](Cc3ccc(O)cc3)C(=O)N3CCC[C@H]3C(=O)N[C@@H](CCCNC(=N)N)C(N)=O)NC(=O)[C@H](CCCCN)NC(=O)[C@@H]3CSSC[C@H](NC(=O)[C@H](CCC(=O)O)NC(=O)[C@H](C(C)C)NC(=O)[C@H](CO)NC(=O)[C@H](C)NC(=O)[C@H](CO)NC(=O)[C@@H](NC(=O)[C@H](CCCNC(=N)N)NC(=O)[C@H](CCSC)NC(=O)[C@H](CC(=O)O)NC(=O)[C@H](CCSC)NC(=O)[C@@H](N)CC(N)=O)CSSC[C@H](NC(=O)[C@H](CCCCN)NC(=O)CNC(=O)[C@H](Cc4ccccc4)NC(=O)[C@H]([C@@H](C)CC)NC(=O)[C@H](CO)NC(=O)CNC1=O)C(=O)N[C@@H](CCSC)C(=O)N[C@@H](CC(N)=O)C(=O)N[C@@H](CCCCN)C(=O)N[C@@H](CCCCN)C(=O)N3)C(=O)N[C@@H](CCCCN)C(=O)N[C@@H](CC(C)C)C(=O)N[C@@H](CCCCN)C(=O)N2` [compound 36] (H-NMDMRCSASVECKLKCLKAIGSIFGKCMNKKCKCYPR-NH2; disulfide 6-27, 12-32, 16-34), the half-maximal inhibitory concentration (IC50) worked out at 0.75 nM.

As for `CCCC[C@@H]1NC(=O)[C@@H]2CSSC[C@H](NC(=O)[C@H](CCCNC(=N)N)NC(=O)[C@H](CCCC)NC(=O)[C@H](CC(=O)O)NC(=O)[C@H](CCCC)NC(=O)[C@@H](N)Cc3c[nH]cn3)C(=O)N[C@@H](CO)C(=O)N[C@@H](C)C(=O)N[C@@H](CO)C(=O)N[C@@H](C(C)C)C(=O)N[C@@H](CCC(=O)O)C(=O)N[C@H]3CSSC[C@H](NC(=O)[C@H](CCCCN)NC(=O)[C@H](CCCCN)NC(=O)[C@H](CC(N)=O)NC1=O)C(=O)N[C@@H](CCCCN)C(=O)N[C@H](C(=O)N[C@@H](Cc1ccc(O)cc1)C(=O)N1CCC[C@H]1C(=O)N[C@@H](CCCNC(=N)N)C(N)=O)CSSC[C@H](NC(=O)[C@H](CCCCN)NC(=O)[C@H](CCC(N)=O)NC(=O)[C@H](CCCCN)NC3=O)C(=O)N[C@@H](CC(C)C)C(=O)N[C@@H](CCCCN)C(=O)N[C@@H](C)C(=O)N[C@@H]([C@@H](C)CC)C(=O)NCC(=O)N[C@@H](CO)C(=O)N[C@@H]([C@@H](C)CC)C(=O)N[C@@H](Cc1ccccc1)C(=O)NCC(=O)N[C@@H](CCCCN)C(=O)N2` [compound 64] (H-H[Nle]D[Nle]RCSASVECKQKCLKAIGSIFGKC[Nle]NKKCKCYPR-NH2; disulfide 6-27, 12-32, 16-34), 1.2 nM corresponded to half-maximal inhibition (IC50).

`CCCC[C@@H]1NC(=O)[C@@H]2CSSC[C@H](NC(=O)[C@H](CCCNC(=N)N)NC(=O)[C@H](CCCC)NC(=O)[C@H](CC(=O)O)NC(=O)[C@H](CCCC)NC(=O)[C@@H](N)Cc3ccc(O)cc3)C(=O)N[C@@H](CO)C(=O)N[C@@H](C)C(=O)N[C@@H](CO)C(=O)N[C@@H](C(C)C)C(=O)N[C@@H](CCC(=O)O)C(=O)N[C@H]3CSSC[C@H](NC(=O)[C@H](CCCCN)NC(=O)[C@H](CCCCN)NC(=O)[C@H](CC(N)=O)NC1=O)C(=O)N[C@@H](CCCCN)C(=O)N[C@H](C(=O)N[C@@H](Cc1ccc(O)cc1)C(=O)N1CCC[C@H]1C(=O)N[C@@H](CCCNC(=N)N)C(N)=O)CSSC[C@H](NC(=O)[C@H](CCCCN)NC(=O)[C@H](CCC(N)=O)NC(=O)[C@H](CCCCN)NC3=O)C(=O)N[C@@H](CC(C)C)C(=O)N[C@@H](CCCCN)C(=O)N[C@@H](C)C(=O)N[C@@H]([C@@H](C)CC)C(=O)NCC(=O)N[C@@H](CO)C(=O)N[C@@H]([C@@H](C)CC)C(=O)N[C@@H](Cc1ccccc1)C(=O)NCC(=O)N[C@@H](CCCCN)C(=O)N2` [compound 65] (H-Y[Nle]D[Nle]RCSASVECKQKCLKAIGSIFGKC[Nle]NKKCKCYPR-NH2; disulfide 6-27, 12-32, 16-34) had an IC50 of 1.1 nM.

In the case of `CCCC[C@@H]1NC(=O)[C@@H]2CSSC[C@H](NC(=O)[C@H](CCCNC(=N)N)NC(=O)[C@H](CCCC)NC(=O)[C@H](CC(=O)O)NC(=O)[C@H](CCCC)NC(=O)[C@@H](N)CO)C(=O)N[C@@H](CO)C(=O)N[C@@H](C)C(=O)N[C@@H](CO)C(=O)N[C@@H](C(C)C)C(=O)N[C@@H](CCC(=O)O)C(=O)N[C@H]3CSSC[C@H](NC(=O)[C@H](CCCCN)NC(=O)[C@H](CCCCN)NC(=O)[C@H](CC(N)=O)NC1=O)C(=O)N[C@@H](CCCCN)C(=O)N[C@H](C(=O)N[C@@H](Cc1ccc(O)cc1)C(=O)N1CCC[C@H]1C(=O)N[C@@H](CCCNC(=N)N)C(N)=O)CSSC[C@H](NC(=O)[C@H](CCCCN)NC(=O)[C@H](CCC(N)=O)NC(=O)[C@H](CCCCN)NC3=O)C(=O)N[C@@H](CC(C)C)C(=O)N[C@@H](CCCCN)C(=O)N[C@@H](C)C(=O)N[C@@H]([C@@H](C)CC)C(=O)NCC(=O)N[C@@H](CO)C(=O)N[C@@H]([C@@H](C)CC)C(=O)N[C@@H](Cc1ccccc1)C(=O)NCC(=O)N[C@@H](CCCCN)C(=O)N2` [compound 66] (H-S[Nle]D[Nle]RCSASVECKQKCLKAIGSIFGKC[Nle]NKKCKCYPR-NH2; disulfide 6-27, 12-32, 16-34), the midpoint of inhibition, the IC50, lay at 0.47 nM.

In turn, `CCCC[C@@H]1NC(=O)[C@@H]2CSSC[C@H](NC(=O)[C@H](CCCNC(=N)N)NC(=O)[C@H](CCCC)NC(=O)[C@H](CC(=O)O)NC(=O)[C@H](CCCC)NC(=O)[C@@H](N)C(C)C)C(=O)N[C@@H](CO)C(=O)N[C@@H](C)C(=O)N[C@@H](CO)C(=O)N[C@@H](C(C)C)C(=O)N[C@@H](CCC(=O)O)C(=O)N[C@H]3CSSC[C@H](NC(=O)[C@H](CCCCN)NC(=O)[C@H](CCCCN)NC(=O)[C@H](CC(N)=O)NC1=O)C(=O)N[C@@H](CCCCN)C(=O)N[C@H](C(=O)N[C@@H](Cc1ccc(O)cc1)C(=O)N1CCC[C@H]1C(=O)N[C@@H](CCCNC(=N)N)C(N)=O)CSSC[C@H](NC(=O)[C@H](CCCCN)NC(=O)[C@H](CCC(N)=O)NC(=O)[C@H](CCCCN)NC3=O)C(=O)N[C@@H](CC(C)C)C(=O)N[C@@H](CCCCN)C(=O)N[C@@H](C)C(=O)N[C@@H]([C@@H](C)CC)C(=O)NCC(=O)N[C@@H](CO)C(=O)N[C@@H]([C@@H](C)CC)C(=O)N[C@@H](Cc1ccccc1)C(=O)NCC(=O)N[C@@H](CCCCN)C(=O)N2` [compound 67] (H-V[Nle]D[Nle]RCSASVECKQKCLKAIGSIFGKC[Nle]NKKCKCYPR-NH2; disulfide 6-27, 12-32, 16-34) came in with an IC50 of 0.98 nM.

`CCCC[C@H](NC(=O)[C@@H]1CCCN1)C(=O)N[C@@H](CC(=O)O)C(=O)N[C@@H](CCCC)C(=O)N[C@@H](CCCNC(=N)N)C(=O)N[C@H]1CSSC[C@@H]2NC(=O)[C@H](CCCCN)NC(=O)CNC(=O)[C@H](Cc3ccccc3)NC(=O)[C@H]([C@@H](C)CC)NC(=O)[C@@H]3CSSC[C@@H](C(N)=O)NC(=O)[C@@H]4CCCN4C(=O)[C@H](Cc4ccc(O)cc4)NC(=O)[C@@H]4CSSC[C@H](NC(=O)[C@H](CCCCN)NC(=O)[C@H](CCC(N)=O)NC(=O)[C@H](CCCCN)NC(=O)[C@H](CSSC[C@H](NC(=O)[C@H](CCCCN)NC(=O)[C@H](CCCCN)NC(=O)[C@H](CC(N)=O)NC(=O)[C@H](CCCC)NC2=O)C(=O)N[C@@H](CCCCN)C(=O)N4)NC(=O)[C@H](CCC(=O)O)NC(=O)[C@H](C(C)C)NC(=O)[C@H](CO)NC(=O)[C@H](C)NC(=O)[C@H](CO)NC1=O)C(=O)N[C@@H](CC(C)C)C(=O)N[C@@H](CCCCN)C(=O)N[C@@H](C)C(=O)N[C@@H]([C@@H](C)CC)C(=O)NCC(=O)N3` [compound 81] (H-P[Nle]D[Nle]RCSASVECKQKCLKAIGCIFGKC[Nle]NKKCKCYPC-NH2; disulfide 6-27, 12-32, 16-34, 22-37): the IC50 came out at 0.81 nM.

“Ac-LRCSASVECKQKCLAAIGSIFGKC[Nle]NKKCKCYPR-OH (cysteine pairing not given here) [compound 104]”: the 50% inhibitory concentration (IC50) was found to be 0.9 nM.

Regarding “H-CSASVECKQKCLKAIGCIFGKC[Nle]NKKCKCYPC-NH2 (cysteine pairing not given here) [compound 84]”, the IC50 worked out at 1.1 nM. This IC50 and that of the compound before are within 1.5-fold of each other.

In the case of “H-LRCSASVECKQKCLKAIGSIFGKC[Nle]NKKCKCYPR-OH (cysteine pairing not given here) [compound 103]”, the IC50 is 2.1 nM. This IC50 lies about 1.9-fold higher than the previous one.

The compound “H-N[Nle]D[Nle]RCSASVECEQKCLKAIGSIFGKC[Nle]NKKCKCYPR-NH2 (cysteine pairing not given here) [compound 47]” yielded a half-inhibitory concentration (IC50) of 0.99 nM.

In turn, “H-N[Nle]D[Nle]RCSASVECQQKCLKAIGSIFGKC[Nle]NKKCKCYPR-NH2 (cysteine pairing not given here) [compound 48]” displayed an IC50 of 1.1 nM.

The compound “H-PIDERCSASVECKQKCLAAIGSIFGKC[Nle]NKKCKCYPR-OH (cysteine pairing not given here) [compound 94]” had an IC50 of 0.87 nM.

The compound “H-P[Nle]D[Nle]RCSASVECAQKCLAAIGSIFGKCMNKKCKCYPR-OH (cysteine pairing not given here) [compound 96]” displayed a half-inhibitory concentration (IC50) of 0.32 nM.

For “H-P[Nle]D[Nle]RCSASVECKEKCL[homo-Gln]AIGSIFGKC[Nle]NKKCKCYPR-NH2 [compound 83]”, inhibition was half-maximal at 1.4 nM (IC50).

For the compound “H-P[Nle]D[Nle]RCSASVECKQKCLKAIGCIFGKC[Nle]NKKCKCYPC-OH (cysteine pairing not given here) [compound 86]”, the half-maximal inhibitory concentration (IC50) is 1.1 nM.

In turn, “H-P[Nle]E[Nle]RCSASVECKQKCLLAIGSIFGKC[Nle]NKKCKCYPR-OH (cysteine pairing not given here) [compound 93]” returned an IC50 of 0.5 nM.

Take “H-S[Nle]D[Nle]RCSASVECKEKCLQAIGSIFGKC[Nle]NKKCKCYPR-NH2 (cysteine pairing not given here) [compound 82]”: the midpoint of inhibition, the IC50, lay at 0.69 nM.

“H-S[Nle]D[Nle]RCSASVECKQKCLAAIGCIFGKC[Nle]NKKCKCYPC-NH2 (cysteine pairing not given here) [compound 85]” had an IC50 of 0.73 nM.

“H-S[Nle]D[Nle]RCSASVECKQKCLKAIGSIFGKCMNKKCKCYQ-NH2 (cysteine pairing not given here) [compound 74]” came in with an IC50 of 1.6 nM.

“H-S[Nle]D[Nle]RCSASVECKQKCLKAIGSIFGKCMNKKCKC[F(4-CH3)]PR-NH2 [compound 89]” gave an IC50 of 0.54 nM.

In the case of “H-S[Nle]D[Nle]RCSASVECKQKCLKAIGSIFGKCMNKKCKC[F(4-F)]PR-NH2 [compound 87]”, the half-inhibitory concentration (IC50) came to 0.34 nM. This IC50 lies about 1.6-fold lower than the previous one.

With “H-S[Nle]D[Nle]RCSASVECKQKCLKAIGSIFGKCMNKKCKC[F(4-NO2)]PR-NH2 [compound 88]”, inhibition was half-maximal at 1.3 nM (IC50).

Regarding “H-S[Nle]D[Nle]RCSASVECKQKCLKAIGSIFGKC[Nle]NKKCKCYPR-OH (cysteine pairing not given here) [compound 80]”, the half-inhibitory concentration (IC50) came out at 0.52 nM.

One may read the IC50 as the point on the concentration scale where inhibition reaches its midpoint.
